Source: ChEMBL document CHEMBL3044928, “Synthesis of 2,4-dihalogenofluorobenzenes and their antimicrobial and antifungal activity studies” (2007)
In brackets after ≈: the same amount, converted by molar mass. Activity calls are given as the source filed them. The rule behind the calls is not given here.

Tests used:
Type in all cases: functional
Candida albicans [1] = assay: Antifungal activity against Candida albicans clinical isolate at 50 ug/disk after 48 hr by disk diffusion method; details: read-out: DIZ
Bacillus cereus [2] = assay: Antibacterial activity against Bacillus cereus ATCC 6633 by NCCLS broth microdilution method
Morganella morganii [3] = assay: Antibacterial activity against Morganella morganii clinical isolate by NCCLS broth microdilution method
Bacillus cereus [4] = assay: Antibacterial activity against Bacillus cereus ATCC 6633 at 5 mg/ml after 24 hr by disk diffusion method; details: ATCC 6633, 24 h, read-out: DIZ
Micrococcus flavus [5] = assay: Antibacterial activity against Micrococcus flavus clinical isolate by NCCLS broth microdilution method
Staphylococcus aureus [6] = assay: Antibacterial activity against Staphylococcus aureus ATCC 25923 at 5 mg/ml after 24 hr by disk diffusion method; details: for zone of inhibition at 5000 µg/mL: ATCC 25923, 24 h, read-out: DIZ
Candida albicans [7] = assay: Antifungal activity against Candida albicans clinical isolate by NCCLS broth microdilution method
Candida albicans [8] = assay: Antifungal activity against Candida albicans clinical isolate at 5 mg/ml after 48 hr by disk diffusion method; details: read-out: DIZ
Escherichia coli [9] = assay: Antibacterial activity against Escherichia coli ATCC 27853 by NCCLS broth microdilution method
Micrococcus flavus [10] = assay: Antibacterial activity against Micrococcus flavus clinical isolate at 5 mg/ml after 24 hr by disk diffusion method; details: read-out: DIZ
Morganella morganii [11] = assay: Antibacterial activity against Morganella morganii clinical isolate at 5 mg/ml after 24 hr by disk diffusion method; details: for zone of inhibition at 5000 µg/mL: read-out: DIZ
Escherichia coli [12] = assay: Antibacterial activity against Escherichia coli ATCC 27853 at 5 mg/ml after 24 hr by disk diffusion method; details: for zone of inhibition at 5000 µg/mL: read-out: DIZ
Staphylococcus aureus [13] = assay: Antibacterial activity against Staphylococcus aureus ATCC 25923 by NCCLS broth microdilution method
Morganella morganii [14] = assay: Antibacterial activity against Morganella morganii clinical isolate at 30 ug/disk after 24 hr by disk diffusion method; details: read-out: DIZ
Micrococcus flavus [15] = assay: Antibacterial activity against Micrococcus flavus clinical isolate at 30 ug/disk after 24 hr by disk diffusion method; details: read-out: DIZ
Candida albicans [16] = assay: Ratio of compound to ketoconazole activity against Candida albicans
Micrococcus flavus [17] = assay: Ratio of compound to tetracycline activity against Micrococcus flavus clinical isolate
Bacillus cereus [18] = assay: Ratio of compound to oxacillin activity against Bacillus cereus ATCC 6633
Escherichia coli [19] = assay: Antibacterial activity against Escherichia coli ATCC 27853 at 10 U/disk after 24 hr by disk diffusion method
Bacillus cereus [20] = assay: Antibacterial activity against Bacillus cereus ATCC 6633 at 1 ug/disk after 24 hr by disk diffusion method; details: ATCC 6633, 24 h, read-out: DIZ
Staphylococcus aureus [21] = assay: Antibacterial activity against Staphylococcus aureus ATCC 25923 at 10 ug/disc after 24 hr by disk diffusion method; details: ATCC 25923, 24 h, read-out: DIZ

| Compound | MIC (Bacillus cereus [2]) [µg/mL] | MIC (Morganella morganii [3]) [µg/mL] | zone of inhibition at 5000 µg/mL (Bacillus cereus [4]) [mm] | MIC (Micrococcus flavus [5]) [µg/mL] | zone of inhibition at 5000 µg/mL (Staphylococcus aureus [6]) [mm] | MIC (Candida albicans [7]) [µg/mL] | zone of inhibition at 5000 µg/mL (Candida albicans [8]) [mm] | MIC (Escherichia coli [9]) [µg/mL] | zone of inhibition at 5000 µg/mL (Micrococcus flavus [10]) [mm] | zone of inhibition at 5000 µg/mL (Escherichia coli [12]) [mm] | MIC (Staphylococcus aureus [13]) [µg/mL] | other results |
| --- | --- | --- | --- | --- | --- | --- | --- | --- | --- | --- | --- | --- |
| CC(=O)N1CCN(c2ccc(OCC3COC(Cn4ccnc4)(c4ccc(Cl)cc4Cl)O3)cc2)CC1 (stereo unspecified) [KETOCONAZOLE] | – | – | – | – | – | – | – | – | – | – | – | zone of inhibition at 50 µg/disc (Candida albicans [1]): 16 mm |
| Fc1cc(Cl)ccc1Cl [2,5-DICHLOROFLUOROBENZENE] | 2000 (≈ 12.1 mM) | 2500 (≈ 15.2 mM) | 16 | 2500 (≈ 15.2 mM) | 15 | 2000 (≈ 12.1 mM) | 17 | 3000 (≈ 18.2 mM) | 14 | 11 | 2500 (≈ 15.2 mM) | zone of inhibition at 5000 µg/mL (Morganella morganii [11]): 12 mm |
| O=C(N[C@H](CO)[C@H](O)c1ccc([N+](=O)[O-])cc1)C(Cl)Cl [CHLORAMPHENICOL] | – | – | – | – | – | – | – | – | – | – | – | zone of inhibition at 30 µg/disc (Morganella morganii [14]): 15 mm |
| CN(C)[C@@H]1C(O)=C(C(N)=O)C(=O)[C@@]2(O)C(O)=C3C(=O)c4c(O)cccc4[C@@](C)(O)[C@H]3C[C@@H]12 [TETRACYCLINE] | – | – | – | – | – | – | – | – | – | – | – | zone of inhibition at 30 µg/disc (Micrococcus flavus [15]): 20 mm |
| Fc1ccc(Cl)cc1Br | 2500 (≈ 11.9 mM) | 2500 (≈ 11.9 mM) | 15 | 2500 (≈ 11.9 mM) | – | 2500 (≈ 11.9 mM) | 30 | 2500 (≈ 11.9 mM) | 32 | – | 2500 (≈ 11.9 mM) | diameter of the inhibition zone (DIZ) (Staphylococcus aureus [6]): inactive; Ratio (Candida albicans [16]): 2; Ratio (Micrococcus flavus [17]): 2; diameter of the inhibition zone (DIZ) (Morganella morganii [11]): inactive; diameter of the inhibition zone (DIZ) (Escherichia coli [12]): inactive; Ratio (Bacillus cereus [18]): 2 |
| Fc1ccc(Cl)cc1I | 2000 (≈ 7.8 mM) | 1500 (≈ 5.85 mM) | 16 | 1500 (≈ 5.85 mM) | 13 | 2500 (≈ 9.75 mM) | 14 | 3000 (≈ 11.7 mM) | 20 | 10 | 2000 (≈ 7.8 mM) | zone of inhibition at 5000 µg/mL (Morganella morganii [11]): 10 mm |
| Fc1cc(Cl)ccc1I | 2000 (≈ 7.8 mM) | 2500 (≈ 9.75 mM) | 13 | 2500 (≈ 9.75 mM) | 12 | 2500 (≈ 9.75 mM) | 14 | 2500 (≈ 9.75 mM) | 11 | 11 | 2500 (≈ 9.75 mM) | zone of inhibition at 5000 µg/mL (Morganella morganii [11]): 13 mm |
| CC1(C)S[C@@H]2[C@H](NC(=O)Cc3ccccc3)C(=O)N2[C@H]1C(=O)O [PENICILLIN G] | – | – | – | – | – | – | – | – | – | – | – | diameter of the inhibition zone (DIZ) (Escherichia coli [19]): 19 mm |
| Fc1ccc(Cl)cc1Cl [2,4-DICHLOROFLUOROBENZENE] | 1500 (≈ 9.09 mM) | 1500 (≈ 9.09 mM) | 19 | 1500 (≈ 9.09 mM) | 15 | 1 (≈ 0.00606 mM) | 12 | 1200 (≈ 7.27 mM) | 11 | 12 | 1200 (≈ 7.27 mM) | diameter of the inhibition zone (DIZ) (Morganella morganii [11]): inactive |
| Cc1onc(-c2ccccc2)c1C(=O)N[C@@H]1C(=O)N2[C@@H]1SC(C)(C)[C@@H]2C(=O)O [OXACILLIN] | – | – | – | – | – | – | – | – | – | – | – | zone of inhibition at 1 µg/disc (Bacillus cereus [20]): 9 mm |
| CC1(C)S[C@@H]2[C@H](NC(=O)[C@H](N)c3ccccc3)C(=O)N2[C@H]1C(=O)O [AMPICILLIN] | – | – | – | – | – | – | – | – | – | – | – | zone of inhibition at 10 µg/disc (Staphylococcus aureus [21]): 9 mm |
| Fc1cc(Cl)ccc1Br | 2000 (≈ 9.55 mM) | 2500 (≈ 11.9 mM) | 17 | 2500 (≈ 11.9 mM) | 14 | 2500 (≈ 11.9 mM) | 11 | 3000 (≈ 14.3 mM) | 13 | 13 | 2500 (≈ 11.9 mM) | diameter of the inhibition zone (DIZ) (Morganella morganii [11]): inactive |
